Measurements taken from patent US8426448B2, “1,5-diphenyl-pyrrolidin-2-one compounds as CB-1 ligands” (Eli Lilly and Company, priority 2008, dated 2013).
Counter-ions that a name gives are not always drawn.

Tests used:
hCB-1 [1] = molecular target: T1, hCB-1 (Homo sapiens, UniProt P21554); assay: hCB1-CHO agonist mode SPA GTP-γ-35S binding assay; type: biochemical; design: purchased Applied Cell Sciences, Rockville, Md; host or cells: CHO cell membranes; conditions: inverse agonism, read-out: hCB-1 SPA GTPγS CHO Membrane Agonist Relative EC50 inverse
T1 sequence (P21554 whole entry): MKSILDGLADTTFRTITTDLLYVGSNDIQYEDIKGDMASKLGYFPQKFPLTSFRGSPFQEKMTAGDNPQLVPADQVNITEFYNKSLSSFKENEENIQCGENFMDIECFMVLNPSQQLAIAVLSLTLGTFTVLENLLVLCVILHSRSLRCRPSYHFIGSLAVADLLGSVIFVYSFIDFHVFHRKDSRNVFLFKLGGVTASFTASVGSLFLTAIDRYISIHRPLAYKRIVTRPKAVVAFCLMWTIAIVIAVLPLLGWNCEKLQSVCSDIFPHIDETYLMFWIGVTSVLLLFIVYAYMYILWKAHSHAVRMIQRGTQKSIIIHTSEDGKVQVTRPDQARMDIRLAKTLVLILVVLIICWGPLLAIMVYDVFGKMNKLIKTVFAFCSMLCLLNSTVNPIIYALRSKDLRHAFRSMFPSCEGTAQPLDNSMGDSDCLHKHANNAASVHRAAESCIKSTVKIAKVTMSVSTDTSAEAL
Protocol: Compounds of the present invention may be tested for functional activity at the CB-1 and CB-2 receptors in both agonist and antagonist modes using SPA (Scintillation Proximity Assay) based GTP-γ-^35S binding assays. All assay components are prepared in assay buffer (20 mM HEPES, 100 mM NaCl, 5 mM MgCl2, pH 7.4) at room temperature. Semi-log dilutions of test compound are prepared in assay buffer containing BSA (0.125% final conc.) for the agonist mode assays. For the antagonist mode assays, test compounds are prepared in the same manner but also include an 80% efficacious dose of a full agonist (methanandamide). GTP-γ^35S binding for the antagonist assay may be measured in a 96 well format using a modification of an antibody capture technique previously described. (DeLapp, N W, et al. (1999) J Pharmacol Exp Ther 289:946-955.) The CB-2 receptor agonist activity may be measured using a similar method using hCB2-Sf9 membranes. The CB-1 receptor agonist activity may be measured using a whole membrane capture technique using hCB1-CHO membranes. All incubations are done at room temperature.
hCB1-CHO membrane, GDP (1 μM final conc.), and saponin (10 μg/mL final conc., Sigma, St Louis, Mo.) are combined and prepared on ice as for the antagonist assays, above. Diluted test compounds, GTP-γ-^35S ([…] final conc.) and membranes are combined in the assay plate and incubated for 30 min. Then 1 mg/well Wheatgerm Agglutinin SPA beads (GE Healthcare, Piscataway, N.J.) are added, plates are sealed and vortexed and incubate for 1 hr. before spinning and counting in the same fashion as for the antagonist assays, above.
Data are analyzed as follows: Background is subtracted from all wells. Percent agonist efficacy is determine by normalizing agonist/inverse agonist dose response data to the response obtained for a full agonist (methanandamide). Percent antagonist inhibition is calculated by first normalizing the data to the signal generated by a saturating concentration of the full agonist (methanandamide). Then the data are analyzed using a 4-parameter logistic reduced fit (Activity Base™ and XLFit3™ from IDBS, Emeryville, Calif.). Kb values are determined using a modification of the Cheng-Prusoff relationship: Kb=IC50/(1+[agonist]/EC50), where “IC50” is determined from a four parameter fit of displacement curves, “[agonist]” is the agonist challenge concentration (nM), and “EC50” is determined from a four parameter fit of a full agonist concentration response curve (Cheng and Prusoff 1973). Mean Kb values are calculated as a mean of at least three independent determinations±standard error of the mean (SEM). […]

hCB-2 = molecular target: T2, hCB-2 (Homo sapiens, UniProt P34972); assay: hCB2-Sf9 antagonist mode SPA GTP-γ-35S binding assay; type: biochemical; conditions: antagonist mode vs methanandamide; read-out: hCB-2 SPA GTPγS Sf9 Membrane Antagonist Kb
T2 construct: purchased Perkin Elmer, Boston, Mass; host or cells: Sf9 cell membranes
T2 sequence (P34972 whole entry): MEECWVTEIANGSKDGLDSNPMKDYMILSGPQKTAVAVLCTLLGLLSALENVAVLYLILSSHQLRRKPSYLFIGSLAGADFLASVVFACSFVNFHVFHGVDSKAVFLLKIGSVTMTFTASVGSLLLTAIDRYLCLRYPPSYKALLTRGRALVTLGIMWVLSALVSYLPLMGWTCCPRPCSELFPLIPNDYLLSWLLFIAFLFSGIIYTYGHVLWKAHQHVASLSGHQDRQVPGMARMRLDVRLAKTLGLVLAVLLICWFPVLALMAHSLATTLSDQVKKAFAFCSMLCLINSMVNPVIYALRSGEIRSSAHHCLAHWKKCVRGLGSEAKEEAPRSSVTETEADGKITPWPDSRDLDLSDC
Protocol: (§1) Compounds of the present invention may be tested for functional activity at the CB-1 and CB-2 receptors in both agonist and antagonist modes using SPA (Scintillation Proximity Assay) based GTP-γ-^35S binding assays. All assay components are prepared in assay buffer (20 mM HEPES, 100 mM NaCl, 5 mM MgCl2, pH 7.4) at room temperature. Semi-log dilutions of test compound are prepared in assay buffer containing BSA (0.125% final conc.) for the agonist mode assays. For the antagonist mode assays, test compounds are prepared in the same manner but also include an 80% efficacious dose of a full agonist (methanandamide). GTP-γ^35S binding for the antagonist assay may be measured in a 96 well format using a modification of an antibody capture technique previously described. (DeLapp, N W, et al. (1999) J Pharmacol Exp Ther 289:946-955.) The CB-2 receptor agonist activity may be measured using a similar method using hCB2-Sf9 membranes. The CB-1 receptor agonist activity may be measured using a whole membrane capture technique using hCB1-CHO membranes. All incubations are done at room temperature. […]
(§2) Data are analyzed as follows: Background is subtracted from all wells. […] Percent antagonist inhibition is calculated by first normalizing the data to the signal generated by a saturating concentration of the full agonist (methanandamide). Then the data are analyzed using a 4-parameter logistic reduced fit (Activity Base™ and XLFit3™ from IDBS, Emeryville, Calif.). Kb values are determined using a modification of the Cheng-Prusoff relationship: Kb=IC50/(1+[agonist]/EC50), where “IC50” is determined from a four parameter fit of displacement curves, “[agonist]” is the agonist challenge concentration (nM), and “EC50” is determined from a four parameter fit of a full agonist concentration response curve (Cheng and Prusoff 1973). Mean Kb values are calculated as a mean of at least three independent determinations±standard error of the mean (SEM). […]

CYP2D6 = molecular target: T3, CYP2D6 (Homo sapiens, UniProt P10635); assay: Human CYP fingerprinting, quinidine inhibition; type: in vitro ADME; conditions: 4 μM, human liver microsomes, 30 min, 10 μM quinidine
T3 construct: pooled, mixed gender, human liver microsomes; from tissue; host or cells: pooled, mixed gender human liver microsomes
T3 sequence (P10635 whole entry): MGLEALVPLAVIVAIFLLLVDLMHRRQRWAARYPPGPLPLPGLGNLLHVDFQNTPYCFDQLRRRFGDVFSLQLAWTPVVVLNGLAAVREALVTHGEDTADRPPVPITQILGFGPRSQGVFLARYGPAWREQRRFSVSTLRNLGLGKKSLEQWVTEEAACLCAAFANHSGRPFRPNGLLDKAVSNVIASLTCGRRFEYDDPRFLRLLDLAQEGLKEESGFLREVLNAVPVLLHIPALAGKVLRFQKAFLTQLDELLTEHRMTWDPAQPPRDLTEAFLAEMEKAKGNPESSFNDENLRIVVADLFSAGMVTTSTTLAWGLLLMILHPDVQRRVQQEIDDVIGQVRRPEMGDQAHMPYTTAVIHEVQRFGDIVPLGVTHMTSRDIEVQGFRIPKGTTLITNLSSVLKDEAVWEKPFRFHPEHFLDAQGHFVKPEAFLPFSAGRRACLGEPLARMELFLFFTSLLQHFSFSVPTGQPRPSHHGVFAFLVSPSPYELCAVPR
Protocol: CYP fingerprinting is well established technique and is used as an indication of potential risk of drug-drug interactions in the pharmaceutical sciences. Compounds of the present invention may be assayed by well known methods, essentially as follows: Compounds are incubated at 37° C. at a final concentration of 4 μM with pooled, mixed gender, human liver microsomes and 1 mM NADPH (Nicotine Adenine Dinucleotide Phosphate) (final conc.) for 0 and 30 min. without any CYP inhibitor and with each CYP inhibitor in separate incubations for 30 min. Each inhibitor is specific for an individual cytochrome P450. The specific inhibitors used for CYPs 2C9, 2D6 and 3A were sulfaphenazole, quinidine and ketoconazole, respectively. Ketoconazole (CYP3A) is made up at 25 mM in DMSO and then diluted in buffer to a final concentration of 10 μM. Quinidine (CYP2D6) is made up at 5 mM in 50/50 acetonitrile/water and then diluted in buffer to a final concentration of 10 μM. Sulfaphenazole (CYP2C9) is made up at 100 mM in DMSO and then diluted in buffer to a final concentration of 5 μM. Samples are analyzed by LC-MS in positive or negative electrospray mode using a Waters Acquity Ultra Performance LC coupled to a MicroMass Q-T of-2 mass spectrometer.
Data are analyzed using MetaboLynx™ version 4.1. […]

hCB-1 [2] = molecular target: T1, hCB-1; assay: hCB1-Sf9 antagonist mode SPA GTP-γ-35S binding assay; type: biochemical; design: purchased Applied Cell Sciences, Rockville, Md; conditions: Sf9 membrane 22.7 μg; antagonist mode vs methanandamide; read-out: hCB-1 SPA GTPγS Sf9 Membrane 22.7 μg Antagonist Kb
Protocol: as §1, §2

EC50 (hCB-1 [1]): 1.27 nM
Kb (hCB-2): > 9090 nM
Risk of Drug Drug Interaction (DDI) CYP2D6 (CYP2D6): Low
Kb (hCB-1 [2]): 0.59 nM
Structure (SMILES): CC(C)(N[C@@H]1C[C@H](c2cccc(C(F)(F)F)c2)N(c2ccc(OC(F)(F)F)cc2)C1=O)c1cccc(C(F)(F)F)n1 [28 HCl salt, (3R,5R)-3-[1-methyl-1-(6-trifluoromethyl-pyridin-2-yl)-ethylamino]-1-(4-trifluoromethoxy-phenyl)-5-(3-trifluoromethyl-phenyl)-pyrrolidin-2-one]
